According to patent publication US10160726B2, “Quinolone derivatives as antibacterials” (priority 2014, dated 2018):
In brackets after ≈: the same amount, converted by molar mass. Structures can show the parent of a compound that is named as a salt. Where two headings read alike, the source gives them in different places.

Assays:
Format in all cases: cell-based
[1] = system: P. aeruginosa NB52023 (efflux deficient K1542, ΔmexX ΔmexB); test: microbe, parasite or virus in culture; settings: Pseudomonas aeruginosa, 20 h, read-out: Antibacterial activity (MIC) NB52023
[2] = system: P. aeruginosa NB52023-CDK0006 (gyrA T83I, parC S87L); test: microbe, parasite or virus in culture; settings: Pseudomonas aeruginosa, 20 h, read-out: Antibacterial activity (MIC) NB52023-CDK0006
[3] = system: E. coli ATCC 25922 (NB27001); test: MIC, broth microdilution (CLSI); settings: Escherichia coli, ATCC25922; E. coli ATCC 25922; 35° C., 20 hours; read-out: Antibacterial activity (MIC) NB27001
[4] = system: S. aureus ATCC 29213 (NB01001); test: MIC, broth microdilution (CLSI); settings: Staphylococcus aureus, ATCC29213; S. aureus ATCC 29213; 35° C., 20 hours; read-out: Antibacterial activity (MIC) NB01001
[5] = system: E. coli NB27177 (efflux deficient CGSC 11430, ΔtolC732::kan); test: microbe, parasite or virus in culture; settings: Escherichia coli, 20 h, read-out: Antibacterial activity (MIC) NB27177
[6] = system: P. aeruginosa NB52019 (wild-type PAO1); test: MIC, broth microdilution (CLSI); settings: Pseudomonas aeruginosa, read-out: Antibacterial activity (MIC) NB52019
[7] = system: S. aureus NB01006-AVR005 (gyrA S84L, grlA S80F, grlB E471K); test: microbe, parasite or virus in culture; settings: Staphylococcus aureus, 20 h, read-out: Antibacterial activity (MIC) NB01006-AVR005
[8] = P. aeruginosa wild-type PAO1, 35° C., 20 hours

Cc1c(N2CC[C@H](O)C2)c(F)cc2c(CN)cc(=O)n(C3CC3)c12 [Example 81.32, (S)-4-(aminomethyl)-1-cyclopropyl-6-fluoro-7-(3-hydroxypyrrolidin-1-yl)-8-methylquinolin-2(1H)-one]
MIC [1]: 0.25 mg/L (≈ 0.754 µM) | MIC [2]: 1 mg/L (≈ 3.02 µM) | MIC [3]: 0.5 mg/L (≈ 1.51 µM) | MIC [4]: 0.5 mg/L (≈ 1.51 µM) | MIC [5]: < 0.03 mg/L | MIC ([6]; PAO1, 20 h): 4 mg/L (≈ 12.1 µM) | MIC [7]: 1 mg/L (≈ 3.02 µM)

Cl.NCc1c(N2CCC(F)(CN)C2)c(F)cc2ccc(=O)n(C3CC3)c12 (stereo not shown) [Example 111, 8-(aminomethyl)-7-(3-(aminomethyl)-3-fluoropyrrolidin-1-yl)-1-cyclopropyl-6-fluoroquinolin-2(1H)-one HCl salt]
MIC [1]: 8 mg/L | MIC [2]: 16 mg/L | MIC [3]: 8 mg/L | MIC [4]: 8 mg/L | MIC [5]: 2 mg/L | MIC [6, 8]: > 32 mg/L | MIC [7]: 8 mg/L

Cc1c(N2CC[C@@H]([C@H](C)N)C2)c(F)cc2c(Cl)cc(=O)n(C3CC3)c12 [Example 44, 7-((R)-3-((S)-1-aminoethyl)pyrrolidin-1-yl)-4-chloro-1-cyclopropyl-6-fluoro-8-methylquinolin-2(1H)-one]
MIC [1]: 4 mg/L (≈ 11 µM) | MIC [2]: 8 mg/L (≈ 22 µM) | MIC [3]: 2 mg/L (≈ 5.5 µM) | MIC [4]: 0.06 mg/L (≈ 0.165 µM) | MIC [5]: 0.03 mg/L (≈ 0.0824 µM) | MIC ([6]; PAO1, 20 h): 8 mg/L (≈ 22 µM) | MIC [7]: 0.03 mg/L (≈ 0.0824 µM)

Cc1c(N2CC[C@@H]([C@H](C)N)C2)c(F)cc2c(OCCC/C(N)=N\O)cc(=O)n(C3CC3)c12 [Example 58, 4-((7-((R)-3-((S)-1-aminoethyl)pyrrolidin-1-yl)-1-cyclopropyl-6-fluoro-8-methyl-2-oxo-1,2-dihydroquinolin-4-yl)oxy)-N′-hydroxybutanimidamide]
MIC [1]: 32 mg/L (≈ 71.8 µM) | MIC [2]: 32 mg/L (≈ 71.8 µM) | MIC [3]: 32 mg/L (≈ 71.8 µM) | MIC [4]: 4 mg/L (≈ 8.98 µM) | MIC [5]: 1 mg/L (≈ 2.24 µM) | MIC ([6]; PAO1, 20 h): > 32 mg/L | MIC [7]: 2 mg/L (≈ 4.49 µM)

Cc1c(N2CC[C@@H]([C@H](C)N)C2)c(F)cc2c(-c3noc(=O)[nH]3)cc(=O)n(C3CC3)c12 [Example 38, 3-(7-((R)-3-((S)-1-aminoethyl)pyrrolidin-1-yl)-1-cyclopropyl-6-fluoro-8-methyl-2-oxo-1,2-dihydroquinolin-4-yl)-1,2,4-oxadiazol-5(4H)-one]
MIC [1]: 32 mg/L (≈ 77.4 µM) | MIC [2]: > 32 mg/L | MIC [3]: 32 mg/L (≈ 77.4 µM) | MIC [4]: 4 mg/L (≈ 9.67 µM) | MIC [5]: 2 mg/L (≈ 4.84 µM) | MIC ([6]; PAO1, 20 h): > 32 mg/L | MIC [7]: 4 mg/L (≈ 9.67 µM)

Cc1c(N2CC[C@@H]([C@H](C)N)C2)c(F)cc2c(C3=NOS(=O)N3)cc(=O)n(C3CC3)c12 (stereo partly drawn) [Example 41, 7-((R)-3-((S)-1-aminoethyl)pyrrolidin-1-yl)-1-cyclopropyl-6-fluoro-8-methyl-4-(2-oxido-3H-1,2,3,5-oxathiadiazol-4-yl)quinolin-2(1H)-one]
MIC [1]: 4 mg/L (≈ 9.23 µM) | MIC [2]: 8 mg/L (≈ 18.5 µM) | MIC [3]: 4 mg/L (≈ 9.23 µM) | MIC [4]: 0.5 mg/L (≈ 1.15 µM) | MIC [5]: 0.125 mg/L (≈ 0.288 µM) | MIC ([6]; PAO1, 20 h): 16 mg/L (≈ 36.9 µM) | MIC [7]: 0.5 mg/L (≈ 1.15 µM)

Cc1c(N2CC[C@H](CN)C2)c(F)cc2c(C#N)cc(=O)n(C3CC3)c12 [Example 29, (R)-7-(3-(aminomethyl)pyrrolidin-1-yl)-1-cyclopropyl-6-fluoro-8-methyl-2-oxo-1,2-dihydroquinoline-4-carbonitrile]
MIC [1]: 2 mg/L (≈ 5.88 µM) | MIC [2]: 4 mg/L (≈ 11.8 µM) | MIC [3]: 1 mg/L (≈ 2.94 µM) | MIC [4]: 0.125 mg/L (≈ 0.367 µM) | MIC [5]: 0.03 mg/L (≈ 0.0881 µM) | MIC ([6]; PAO1, 20 h): 8 mg/L (≈ 23.5 µM) | MIC [7]: 0.125 mg/L (≈ 0.367 µM)

Cc1c(N2CCC(F)(CN)C2)c(F)cc2cc(CN)c(=O)n(C3CC3)c12 (stereo not shown) [Example 93, 3-(aminomethyl)-7-(3-(aminomethyl)-3-fluoropyrrolidin-1-yl)-1-cyclopropyl-6-fluoro-8-methylquinolin-2(1H)-one formic acid salt]
MIC [1]: 4 mg/L | MIC [2]: 8 mg/L | MIC [3]: 8 mg/L | MIC [4]: 2 mg/L | MIC [5]: 1 mg/L | MIC ([6]; PAO1, 20 h): 8 mg/L | MIC [7]: 16 mg/L

Cc1c(N2CC[C@@H]([C@H](C)N)C2)c(F)cc2c(OCCNC(=N)N)cc(=O)n(C3CC3)c12 [Example 53, 1-(2-((7-((R)-3-((S)-1-aminoethyl)pyrrolidin-1-yl)-1-cyclopropyl-6-fluoro-8-methyl-2-oxo-1,2-dihydroquinolin-4-yl)oxy)ethyl)guanidine]
MIC [1]: 4 mg/L (≈ 9.29 µM) | MIC [2]: 4 mg/L (≈ 9.29 µM) | MIC [3]: 4 mg/L (≈ 9.29 µM) | MIC [4]: 0.5 mg/L (≈ 1.16 µM) | MIC [5]: 0.125 mg/L (≈ 0.29 µM) | MIC ([6]; PAO1, 20 h): 16 mg/L (≈ 37.2 µM) | MIC [7]: 0.5 mg/L (≈ 1.16 µM)

CC(=O)NCCOc1cc(=O)n(C2CC2)c2c(C)c(N3CC[C@@H]([C@H](C)N)C3)c(F)cc12 [Example 54, N-(2-((7-((R)-3-((S)-1-aminoethyl)pyrrolidin-1-yl)-1-cyclopropyl-6-fluoro-8-methyl-2-oxo-1,2-dihydroquinolin-4-yl)oxy)ethyl)acetamide]
MIC [1]: > 32 mg/L | MIC [2]: > 32 mg/L | MIC [3]: 32 mg/L (≈ 74.3 µM) | MIC [4]: 8 mg/L (≈ 18.6 µM) | MIC [5]: 4 mg/L (≈ 9.29 µM) | MIC ([6]; PAO1, 20 h): 32 mg/L (≈ 74.3 µM) | MIC [7]: 4 mg/L (≈ 9.29 µM)

Cc1c(N2CC[C@@H]([C@H](C)N)C2)ccc2c(OCc3ccccc3)cc(=O)n(C3CC3)c12 [Example 71, 7-((R)-3-((S)-1-aminoethyl)pyrrolidin-1-yl)-4-(benzyloxy)-1-cyclopropyl-8-methylquinolin-2(1H)-one TFA salt]
MIC [1]: > 32 mg/L | MIC [2]: > 32 mg/L | MIC [3]: 32 mg/L | MIC [4]: 2 mg/L | MIC [5]: 6 mg/L | MIC ([6]; PAO1, 20 h): > 32 mg/L | MIC [7]: 6 mg/L

Cl.N#Cc1c(N2CC[C@H](N)C2)c(F)cc2ccc(=O)n(C3CC3)c12 [Example 113, (S)-7-(3-aminopyrrolidin-1-yl)-1-cyclopropyl-6-fluoro-2-oxo-1,2-dihydroquinoline-8-carbonitrile HCl salt]
MIC [1]: 2 mg/L | MIC [2]: 4 mg/L | MIC [3]: 0.5 mg/L | MIC [4]: 8 mg/L | MIC [5]: 0.125 mg/L | MIC [6, 8]: 16 mg/L | MIC [7]: 16 mg/L

Cc1c(N2CCC(CN)C2)c(F)c(C#N)c2ccc(=O)n(C3CC3)c12.O=C(O)C(F)(F)F (stereo not shown) [Example 99, 7-(3-(aminomethyl)pyrrolidin-1-yl)-1-cyclopropyl-6-fluoro-8-methyl-2-oxo-1,2-dihydroquinoline-5-carbonitrile TFA salt]
MIC [1]: 2 mg/L | MIC [2]: 4 mg/L | MIC [3]: 4 mg/L | MIC [4]: 0.125 mg/L | MIC [5]: 0.125 mg/L | MIC [6, 8]: > 32 mg/L | MIC [7]: 0.06 mg/L

Cc1c(N2CCC(CN)C2)c(F)cc2c(CN(C)C)cc(=O)n(C3CC3)c12.O=C(O)C(F)(F)F (stereo not shown) [Example 89, 7-(3-(aminomethyl)pyrrolidin-1-yl)-1-cyclopropyl-4-((dimethylamino)methyl)-6-fluoro-8-methylquinolin-2(1H)-one TFA salt]
MIC [1]: 16 mg/L | MIC [2]: 32 mg/L | MIC [3]: 4 mg/L | MIC [4]: 1 mg/L | MIC [5]: 0.5 mg/L | MIC [6, 8]: > 32 mg/L | MIC [7]: 4 mg/L

Cc1c(N2CCNCC2)c(F)cc2c(C#N)cc(=O)n(C3CC3)c12 [Example 32, 1-cyclopropyl-6-fluoro-8-methyl-2-oxo-7-(piperazin-1-yl)-1,2-dihydroquinoline-4-carbonitrile]
MIC [1]: 16 mg/L (≈ 49 µM) | MIC [2]: 32 mg/L (≈ 98 µM) | MIC [3]: 4 mg/L (≈ 12.3 µM) | MIC [4]: 4 mg/L (≈ 12.3 µM) | MIC [5]: 0.125 mg/L (≈ 0.383 µM) | MIC [6, 8]: 32 mg/L (≈ 98 µM) | MIC [7]: 2 mg/L (≈ 6.13 µM)

CCOC(=O)c1cc(=O)n(C2CC2)c2c(C)c(N3CC[C@@H]([C@H](C)N)C3)c(F)cc12 [Example 35, ethyl 7-((R)-3-((S)-1-aminoethyl)pyrrolidin-1-yl)-1-cyclopropyl-6-fluoro-8-methyl-2-oxo-1,2-dihydroquinoline-4-carboxylate]
MIC [1]: 8 mg/L (≈ 19.9 µM) | MIC [2]: 8 mg/L (≈ 19.9 µM) | MIC [3]: 4 mg/L (≈ 9.96 µM) | MIC [4]: 0.06 mg/L (≈ 0.149 µM) | MIC [5]: < 0.03 mg/L | MIC ([6]; PAO1, 20 h): 8 mg/L (≈ 19.9 µM) | MIC [7]: 0.06 mg/L (≈ 0.149 µM)

Cc1c(N2CC[C@@H]([C@H](C)N)C2)c(F)cc2c(OCCNS(C)(=O)=O)cc(=O)n(C3CC3)c12 [Example 66, N-(2-((7-((R)-3-((S)-1-aminoethyl)pyrrolidin-1-yl)-1-cyclopropyl-6-fluoro-8-methyl-2-oxo-1,2-dihydroquinolin-4-yl)oxy)ethyl)methanesulfonamide]
MIC [1]: > 32 mg/L | MIC [2]: > 32 mg/L | MIC [3]: 32 mg/L (≈ 68.6 µM) | MIC [4]: 4 mg/L (≈ 8.57 µM) | MIC [5]: 2 mg/L (≈ 4.29 µM) | MIC ([6]; PAO1, 20 h): > 32 mg/L | MIC [7]: 4 mg/L (≈ 8.57 µM)

COc1cc(=O)n(C2CC2)c2c(C)c(N3CC[C@@H]([C@H](C)N)C3)ccc12 [Example 68, 7-((R)-3-((S)-1-aminoethyl)pyrrolidin-1-yl)-1-cyclopropyl-4-methoxy-8-methylquinolin-2(1H)-one]
MIC [1]: > 32 mg/L | MIC [2]: > 32 mg/L | MIC [3]: 32 mg/L (≈ 93.7 µM) | MIC [4]: 0.5 mg/L (≈ 1.46 µM) | MIC [5]: 0.25 mg/L (≈ 0.732 µM) | MIC ([6]; PAO1, 20 h): > 32 mg/L | MIC [7]: 1 mg/L (≈ 2.93 µM)

CCc1cc(=O)n(C2CC2)c2c(C)c(N3CC[C@@H]([C@H](C)N)C3)c(F)cc12 [Example 24, 7-((R)-3-((S)-1-aminoethyl)pyrrolidin-1-yl)-1-cyclopropyl-4-ethyl-6-fluoro-8-methylquinolin-2(1H)-one]
MIC [1]: > 32 mg/L | MIC [2]: > 32 mg/L | MIC [3]: 8 mg/L (≈ 22.4 µM) | MIC [4]: 0.06 mg/L (≈ 0.168 µM) | MIC [5]: 0.06 mg/L (≈ 0.168 µM) | MIC ([6]; PAO1, 20 h): > 32 mg/L | MIC [7]: 0.06 mg/L (≈ 0.168 µM)
